Reference: publication PMC11161644, “An effective and rapidly degradable disinfectant from disinfection byproducts” (Nature Communications, 2024)
Like-named read-outs stand apart in the source and are kept apart here.

Tests used:
[1] = tested on: C. albicans (ATCC 14053); test: Inactivation of C. albicans (contact time 5 min); type: cell-based, Candida albicans; conditions: for log reduction at 300 µg/mL: Candida albicans, ATCC14053, 5 min, dose 300 mg L-1, pH 7.2, contact time 5 min; for C. albicans inactivation rate constant k / Dose for achieving 3-log inactivation of C. albicans: pH 7.2, contact time 5 min
Protocol: (§1) The chemicals and reagents used are detailed in Supplementary Note 1. The bacteria E. coli (ATCC 25922) and S. aureus (ATCC 25923) were cultured aerobically in Luria-Bertani broth (Sigma-Aldrich) and Tryptone Soya broth (Oxoid), respectively, at 37 °C for 16 h. The fungus C. albicans (ATCC 14053) was aerobically cultured in Sabouraud Dextrose broth (Difco) at 37 °C for 24 h. The microorganism cells were harvested by centrifugation at 1200×g (10 min, 4 °C) and resuspended in phosphate-buffered saline (PBS, 10 mM, pH 7.2). The disinfection experiments were performed in PBS solutions (10 mM, pH 7.2) with an initial concentration of E. coli, S. aureus, or C. albicans of 10^6‒10^7 cells per milliliter. A contact time of 5 min was used in accordance with the recommended time range of 0.25–10 min by USEPA for surface disinfection. Preliminary tests were conducted to determine the appropriate range of DBP doses. The appropriate dose range was established when the lowest and highest doses could achieve <1-log and >3-log of microbial inactivation, respectively. Based on the preliminary results, a series of doses of DBPs were added to the cell suspensions at room temperature (22 ± 1 °C). After the contact time of 5 min, the microorganism cells were enumerated following a membrane filter method. Briefly, serial 10-fold dilutions were conducted for the disinfected samples and the control sample without disinfection. Each diluted suspension was subjected to filtration through 0.45-μm membrane, which was then placed on a petri dish. The Petri dishes containing E. coli, S. aureus, and C. albicans were incubated in m-FC medium (Becton Dickinson & Co) at 45 °C for 24 h, in Tryptone Soya broth at 37 °C for 24 h and in Sabouraud Dextrose broth at 37 °C for 24 h, respectively. After incubation, the colony-forming units within a statistically reasonable range (20–80) were counted.

[2] = tested on: E. coli (ATCC 25922); test: Inactivation of E. coli by disinfectants (membrane filter enumeration, contact time 5 min); type: cell-based, Escherichia coli; conditions: for log reduction at 475 µg/mL / EC (3-log inactivation) / log reduction at 115 µg/mL / log reduction at 1500 µg/mL / log reduction at 500 µg/mL / log reduction at 200 µg/mL: Escherichia coli, ATCC25922, 5 min; for log reduction at 475 µg/mL: dose 475 mg L-1; for log reduction at 475 µg/mL / log reduction at 115 µg/mL / log reduction at 1500 µg/mL / log reduction at 500 µg/mL / log reduction at 200 µg/mL: 5 min; for log reduction at 115 µg/mL: dose 115 mg L-1; for log reduction at 115 µg/mL / log reduction at 1500 µg/mL / log reduction at 500 µg/mL / log reduction at 200 µg/mL: read-out: Log (N/N0); for log reduction at 1500 µg/mL: dose 1500 mg L-1; for log reduction at 500 µg/mL: dose 500 mg L-1; for log reduction at 200 µg/mL: dose 200 mg L-1
Protocol: as §1
The impact of pH on the disinfection efficiencies of DBPs was examined. E. coli (ATCC 25922) was used as the test strain. The disinfection experiments were performed in 10 mM PBS solutions (pH 6.2, 7.2, and 8.2) with an initial E. coli concentration of 10^6‒10^7 cells per milliliter. To initiate the disinfection, a DBP was dosed with a bacteria suspension at a predetermined concentration. After the given contact time (5 min) at room temperature (22 ± 1 °C), the bacteria were enumerated following the membrane filter method. The bacteria concentrations in the 10 mM PBS solutions (pH 6.2, 7.2, and 8.2) without the addition of DBPs were used as controls.

[3] = tested on: bacteriophage MS2 (ATCC 15597-B1); test: Inactivation of bacteriophage MS2 (double-layer agar, contact time 5 min); type: cell-based; conditions: for log reduction at 300 µg/mL: Escherichia phage MS2, ATCC15597, 5 min, dose 300 mg L-1, pH 7.2, contact time 5 min; for Dose for achieving 3-log inactivation of MS2 / MS2 inactivation rate constant k: pH 7.2, contact time 5 min
Protocol: The bacteriophage MS2 (ATCC 15597-B1) was propagated in the host E. coli (ATCC 15597) in Tryptone Soya broth at 37 °C for 16 h. The viruses were separated from the bacterial debris and purified by centrifuging the phage culture (4000×g, 10 min, 4 °C) and filtering the lysate with a 0.2 μm polyethersulfone sterile filter. The filtrate was then diluted in PBS (10 mM, pH 7.2) to an initial MS2 concentration of 10^9‒10^10 plaque-forming units […]. To initiate the disinfection experiments, a series of DBP doses were added to the MS2 suspension at room temperature (22 ± 1 °C). […] Briefly, serial 10-fold dilutions were conducted for the disinfected samples and the control sample without disinfection. Each dilution was mixed with the host E. coli in the soft agar and the mixture was immediately spread onto a Petri dish with Tryptone Soya agar. After the Petri dishes were incubated at 37 °C for 16 h, the plaque-forming units were counted. The disinfection experiments were performed in duplicate. All the materials for the disinfection experiments were autoclaved before use.

[4] = pH 7.2, read-out: Dose for achieving 3-log inactivation of E. coli
[5] = pH 7.2, C. albicans, read-out: Log (N/N0)
[6] = pH 7.2, contact time 5 min, read-out: Dose for achieving 3-log inactivation of E. coli
[7] = pH 7.2, MS2, read-out: Log (N/N0)

SMILES	EC (3-log inactivation) [2, 4] [µg/mL]	E. coli inactivation rate constant k ([2]; pH 7.2, contact time 5 min) [L mg‒1 h‒1]	log reduction at 300 µg/mL [1, 5]	EC (3-log inactivation) [2, 6] [µg/mL]	log reduction at 300 µg/mL [3, 7]	C. albicans inactivation rate constant k [1] [µL/min/mg]	Dose for achieving 3-log inactivation of C. albicans [1] [mg L−1]	Dose for achieving 3-log inactivation of MS2 [3] [mg L−1]	MS2 inactivation rate constant k [3] [µL/min/mg]	also measured
Oc1ccc(Cl)cc1Cl [2,4-DCPh, 2,4-Dichlorophenol]	472	0.30	–	–	–	–	–	–	–	log reduction at 300 µg/mL ([1]; pH 7.2, read-out: Log (N/N0), C. albicans): 0.236; log reduction at 475 µg/mL ([2]; pH 6.2, read-out: Log (N/N0), E. coli, pH 6.2): 3.02; log reduction at 475 µg/mL ([2]; pH 7.2, read-out: Log (N/N0), E. coli, pH 7.2): 3.32; log reduction at 475 µg/mL ([2]; pH 8.2, read-out: Log (N/N0), E. coli, pH 8.2): 3.29; log reduction at 300 µg/mL ([3]; pH 7.2, read-out: Log (N/N0), MS2): 0.549
Oc1ccc(I)cc1I [2,4-DIPh, 2,4-diiodophenol]	–	0.79	5.49	112	2.17	–	–	–	–	log reduction at 115 µg/mL ([2]; pH 6.2, E. coli, pH 6.2): 3.33; log reduction at 115 µg/mL ([2]; pH 7.2, E. coli, pH 7.2): 2.77; log reduction at 115 µg/mL ([2]; pH 8.2, E. coli, pH 8.2): 3.02
Oc1cc(Br)c(O)cc1Br [2,5-DBHQ, 2,5-dibromohydroquinone]	–	0.03	–	1450	–	–	–	–	–	log reduction at 1500 µg/mL ([2]; pH 6.2, E. coli, pH 6.2): 1.35; log reduction at 1500 µg/mL ([2]; pH 7.2, E. coli, pH 7.2): 3.28; log reduction at 1500 µg/mL ([2]; pH 8.2, E. coli, pH 8.2): 3.84
Oc1cc(I)c(O)cc1I [2,5-DIHQ, 2,5-diiodohydroquinone]	–	0.13	0.393	459	1.11	–	–	–	–	log reduction at 500 µg/mL ([2]; pH 6.2, E. coli, pH 6.2): 1.76; log reduction at 500 µg/mL ([2]; pH 7.2, E. coli, pH 7.2): 3.66; log reduction at 500 µg/mL ([2]; pH 8.2, E. coli, pH 8.2): 5.5
O=C1C=C(Cl)C(=O)C(Cl)=C1 [2,6-DCQ, 2,6-dichlorobenzoquinone]	12.8	5.50	–	–	–	31300	35.4	46.1	14200	Disinfection efficiency relative to PCMX (ratio of doses for 3-log inactivation) ([2]; E. coli, S. aureus, C. albicans and MS2, pH 7.2, 5 min): 9.0–22 times; Log reduction (Mean ± SD) ([2]; E. coli, dose 7.5 mg L−1, pH 7.2, contact time 5 min): 0.76 ± 0.16; Log reduction (Mean ± SD) ([2]; E. coli, dose 15 mg L−1, pH 7.2, contact time 5 min): 4.24 ± 0.22
Cc1cc(O)cc(C)c1Cl [PCMX, para-chloro-meta-xylenol, reference compound]	–	0.66	3.49	188	1.03	3670	320	1010	600	log reduction at 200 µg/mL ([2]; pH 6.2, E. coli, pH 6.2): 4.19; log reduction at 200 µg/mL ([2]; pH 7.2, E. coli, pH 7.2): 3.54; log reduction at 200 µg/mL ([2]; pH 8.2, E. coli, pH 8.2): 5.56
